Assay results as given in the NIST ThermoML archive (doi:10.1007/s10765-006-0045-2).
“And” between values parts separate entries of the source, which are not always exact repeats. Equal values may be shown once.

Key:
[1] = 101.33 kPa, Crystal; for thermal diffusivity: laser flash method
[2] = molar heat capacity at constant pressure; conditions: 101.33 kPa, Resistive pulse heating

[Hf] [hafnium]
[1]
Conditions | thermal diffusivity
285 K | 1.36e-05 m2/s
293 K | 1.38e-05 m2/s
321 K | 1.32e-05 m2/s
326 K | 1.31e-05 m2/s
375 K | 1.24e-05 m2/s
386 K | 1.22e-05 m2/s
423 K | 1.19e-05 m2/s
433 K | 1.17e-05 m2/s
459 K | 1.15e-05 m2/s
492 K | 1.12e-05 m2/s
521 K | 1.08e-05 m2/s
530 K | 1.08e-05 m2/s
568 K | 1.05e-05 m2/s
579 K | 1.06e-05 m2/s
615 K | 1.02e-05 m2/s
618 K | 1.04e-05 m2/s
664 K | 1e-05 m2/s and 1.02e-05 m2/s
714 K | 9.91e-06 m2/s
715 K | 9.92e-06 m2/s
760 K | 9.79e-06 m2/s
767 K | 9.72e-06 m2/s
817 K | 9.57e-06 m2/s
825 K | 9.67e-06 m2/s
862 K | 9.46e-06 m2/s
874 K | 9.59e-06 m2/s
914 K | 9.36e-06 m2/s
919 K | 9.54e-06 m2/s
962 K | 9.32e-06 m2/s
965 K | 9.54e-06 m2/s
1012 K | 9.29e-06 m2/s
1017 K | 9.54e-06 m2/s
1065 K | 9.26e-06 m2/s and 9.53e-06 m2/s
1113 K | 9.27e-06 m2/s
1118 K | 9.59e-06 m2/s
1162 K | 9.4e-06 m2/s
1174 K | 9.6e-06 m2/s
1215 K | 9.45e-06 m2/s
1222 K | 9.65e-06 m2/s
1262 K | 9.43e-06 m2/s
1277 K | 9.81e-06 m2/s
1314 K | 9.5e-06 m2/s
1332 K | 9.85e-06 m2/s
1362 K | 9.7e-06 m2/s
1370 K | 1e-05 m2/s
1417 K | 9.96e-06 m2/s
1430 K | 1.02e-05 m2/s
1463 K | 1e-05 m2/s
1472 K | 1.05e-05 m2/s

Conditions | mass density | molar heat capacity at constant pressure
[1], 298.1 K, mass over volume | 13222 kg/m3 [middle of 5 runs] | –
[2], 294 K, Crystal 2 | – | 25.61 J/K/mol and 25.77 J/K/mol
[2], 321 K, Crystal 2 | – | 25.86 J/K/mol and 26.01 J/K/mol
[2], 372 K, Crystal 2 | – | 26.33 J/K/mol and 26.38 J/K/mol
[2], 421 K, Crystal 2 | – | 26.77 J/K/mol and 26.7 J/K/mol
[2], 471 K, Crystal 2 | – | 27.22 J/K/mol and 27.1 J/K/mol
[2], 522 K, Crystal 2 | – | 27.67 J/K/mol and 27.49 J/K/mol
[2], 571 K, Crystal 2 | – | 28.09 J/K/mol and 27.88 J/K/mol
[2], 622 K, Crystal 2 | – | 28.52 J/K/mol and 28.29 J/K/mol
[2], 671 K, Crystal 2 | – | 28.93 J/K/mol and 28.67 J/K/mol
[2], 721 K, Crystal 2 | – | 29.36 J/K/mol and 29.04 J/K/mol
[2], 771 K, Crystal 2 | – | 29.77 J/K/mol and 29.47 J/K/mol
[2], 821 K, Crystal 2 | – | 30.17 J/K/mol and 29.95 J/K/mol
[2], 871 K, Crystal 2 | – | 30.56 J/K/mol and 30.4 J/K/mol
[2], 921 K, Crystal 2 | – | 30.95 J/K/mol and 30.84 J/K/mol
[2], 971 K, Crystal 2 | – | 31.34 J/K/mol and 31.25 J/K/mol
[2], 1021 K, Crystal 2 | – | 31.72 J/K/mol and 31.7 J/K/mol
[2], 1071 K, Crystal 2 | – | 32.08 J/K/mol and 32.11 J/K/mol
[2], 1121 K, Crystal 2 | – | 32.45 J/K/mol and 32.49 J/K/mol
[2], 1171 K, Crystal 2 | – | 32.84 J/K/mol and 32.93 J/K/mol
[2], 1221 K, Crystal 2 | – | 33.2 J/K/mol and 33.34 J/K/mol
[2], 1271 K, Crystal 2 | – | 33.54 J/K/mol and 33.73 J/K/mol
[2], 1321 K, Crystal 2 | – | 33.88 J/K/mol and 34.13 J/K/mol
[2], 1371 K, Crystal 2 | – | 34.2 J/K/mol and 34.52 J/K/mol
[2], 1421 K, Crystal 2 | – | 34.52 J/K/mol and 34.91 J/K/mol
[2], 1471 K, Crystal 2 | – | 34.84 J/K/mol and 35.25 J/K/mol
[2], 1521 K, Crystal 2 | – | 35.15 J/K/mol and 35.68 J/K/mol
[2], 1571 K, Crystal 2 | – | 35.45 J/K/mol and 36.06 J/K/mol
[2], 1621 K, Crystal 2 | – | 35.73 J/K/mol and 36.38 J/K/mol
[2], 1671 K, Crystal 2 | – | 36.02 J/K/mol and 36.7 J/K/mol
[2], 1721 K, Crystal 2 | – | 36.31 J/K/mol and 37.13 J/K/mol
[2], 1771 K, Crystal 2 | – | 36.57 J/K/mol and 37.48 J/K/mol
[2], 1821 K, Crystal 2 | – | 36.84 J/K/mol and 37.88 J/K/mol
[2], 1871 K, Crystal 2 | – | 37.09 J/K/mol and 38.29 J/K/mol
[2], 1921 K, Crystal 2 | – | 37.34 J/K/mol and 38.64 J/K/mol
[2], 1971 K, Crystal 2 | – | 37.59 J/K/mol and 40.2 J/K/mol
[2], 1983 K, Crystal 2 | – | 39.18 J/K/mol
[2], 2121 K, Crystal 1 | – | 34.13 J/K/mol and 34.29 J/K/mol
[2], 2171 K, Crystal 1 | – | 34.18 J/K/mol and 34.29 J/K/mol
[2], 2222 K, Crystal 1 | – | 34.23 J/K/mol and 34.29 J/K/mol
[2], 2272 K, Crystal 1 | – | 34.29 J/K/mol
[2], 2321 K, Crystal 1 | – | 34.41 J/K/mol
[2], 2336 K, Crystal 1 | – | 34.5 J/K/mol
